Reference: patent US20050204407A1, “Methods for identifying and developing compounds that interact with voltage-gated potassium channels of the kv4 family” (priority 2002, published 2005)

Key:
exp-2 background [1] = test: Drinking assay (uptake of Calcein AM) in exp-2 background; type: in vivo, C. elegans; settings: 0.3 mM, exp-2 without compound = 100%
Excerpt: (§1) The hKv4.3 expressing C. elegans strain UG 1611 (Example IV) was investigated for drinking behaviour by determining the uptake over time of the fluorescent dye Calcein AM, essentially as described in Examples 2 and 3 of the International application PCT/IB00/00575 by Applicant, using 96 well plates containing 100 nematodes/well. As a comparison, the exp-2(sa26as1426)V background was used.
(§2) The influence of mM 4-aminopyridine, a known general antagonist of voltage-gated potassium channel, on drinking behaviour of the hKv4.3 expressing C. elegans strain UG 1611 (Example IV) was determined by measuring the uptake of the fluorescent dye Calcein AM with and without the presence of 0.3 mM 4aminopyridine, essentially as described in Examples 2 and 3 of the International application PCT/IB00/00575 by Applicant.

unc-119; hKv4.3 = test: Pharynx pumping rate of unc-119; hKv4.3 nematode; type: in vivo, C. elegans; settings: 500 mM, 3 hrs
[2] = test system: hKv4.3 expressing C. elegans strain UG 1611; test: Drinking assay (uptake of Calcein AM) in hKv4.3 expressing exp-2 strain UG 1611; type: in vivo; settings: 0.3 mM, exp-2 without compound = 100%, UG 1611 without compound 114%
Excerpt: as §1, §2

[3] = test system: hKv4.3 expressing C. elegans strain UG 1611; test: Pharynx pumping rate of hKv4.3 expressing exp-2 strain UG 1611; type: in vivo; design: Change observed (pharynx pumping rate): dose or concentration left out as unconfirmed
Description: The influence of 4-aminopyridine, a known general antagonist of voltage-gated potassium channel, on the pharynx pumping rate of the hKv4.3 expressing C. elegans strain UG 1611 (Example IV) was determined as follows.
The nematodes were cultivated to L4 stage on an agar plate, and then kept overnight at 20° C. to reach the adult stage. […] After 3 hours at 20° C., the number of pharynx “pumps” (contractions) per 30 seconds were determined visually using a stopwatch. As a comparison, the influence of 4-aminopyridine on the original exp-2 background was also determined, in essentially the same manner.

[4] = test system: hKv4.3-expressing pha-1 strain UG 1598; test: Electropharyngeogram (EPG) of hKv4.3-expressing pha-1 strain UG 1598; type: in vivo, C. elegans; settings: 215 mM
Description: An electropharyngeogram of the human Kv4.3 expressing strain UG 1547 was recorded using an Axopatch-1D amplifier (Axon instruments), essentially as described by Raizen and Avery, supra, and is shown in FIG. 1. For comparison, reference is made to the EPG's for wild-type and exp-2 shown by Davis, Dent and Avery, Worm Breeders Gazette 14(4); 72 (1996), as well as the EPG's for wild-type shown in Raizen and Avery.
The influence of 4-aminopyridine on the EPG of a hKv4.3-expressing strain was studied using the hKv4.3-expressing pha-1 strain UG 1598 of Example III. As mentioned in Example VI, exposing this strain UG 1598 to 4-aminopyridine leads to a reduction of pharynx pumping.
The EPG's for UG 1598 (using 4 pharynxes) were recorded essentially as described in Example XII. The EPG's of UG 1598 without 4-aminopyridine were recorded during a period of 5 minutes, upon which the pharynxes were exposed to 215 mM 4-aminopyridine, and the EPG's were further recorded during a 5 minute period. The EPG's with and without the presence of 4-aminopyridine were then compared with each other and to the EPG for wild-type (see the references mentioned in Example XII).
The number of “Kv4.3-like” AP's and the number of “normal” AP's during the 5 minute recording period were determined/counted from the recorded EPG's.
After exposure to the 4-aminopyridine, the number of “Kv4.3-like” AP's and the number of “normal” AP's during the 5 minute recording period were again determined/counted from the EPG recording.

exp-2 background [5] = test: Pharynx pumping rate of original exp-2 background (comparison); type: in vivo, C. elegans; settings: 2 mM, 3 hours at 20° C., FIG. 5
Description: The nematodes were cultivated to L4 stage on an agar plate, and then kept overnight at 20° C. to reach the adult stage. The worms where then transferred to agar plates containing 2 mM 4-aminopyridine in DMSO. After 3 hours at 20° C., the number of pharynx “pumps” (contractions) per 30 seconds were determined visually using a stopwatch. As a comparison, the influence of 4-aminopyridine on the original exp-2 background was also determined, in essentially the same manner.

N2 background = test: Pharynx pumping rate of N2 background (comparison); type: in vivo, C. elegans; settings: 0,5 mM, 3 hours at 20° C., FIG. 4
Description: (§3) The nematodes were cultivated to L4 stage on an agar plate, and then kept overnight at 20° C. to reach the adult stage. The worms where then transferred to agar plates containing 0,5 mM 4-aminopyridine in DMSO. After 3 hours at 20° C., the number of pharynx “pumps” (contractions) per 30 seconds were determined visually using a stopwatch. As a comparison, the influence of 4-aminopyridine on an N2 background was also determined, in essentially the same manner.

[6] = test system: hKv4.3 expressing C. elegans strain UG 1598; test: Pharynx pumping rate of hKv4.3 expressing pha-1 strain UG 1598; type: in vivo
Description: The influence of 4-aminopyridine, a known general antagonist of voltage-gated potassium channel, on the pharynx pumping rate of the hKv4.3 expressing C. elegans strain UG 1598 (Example III) was determined as follows.
as §3

[7] = UG 1598, compared to UG1598 without compound

## Nc1ccncc1 [4-aminopyridine]
exp-2 background [1]
  Uptake of fluorescent marker Calcein AM (drinking): 103%
unc-119; hKv4.3
  Change observed (pharynx pumping rate): increase in
[2]
  Uptake of fluorescent marker Calcein AM (drinking): 109%
[3]; exp-2, hKv4.3, 3 hrs
  Change observed (pharynx pumping rate): (small) decrease
[3]; strain UG 1611, 2 mM in agar plates, 3 hours at 20° C., FIG. 5
  Influence on pharynx pumping rate (pumps per 30 seconds): decreases
[4]; UG 1598, 4 pharynxes, before adding 14+/−12, P<0.0161
  Number of "normal" APs during the 5 minute recording period: 64+/−9
[4]; [7]
  Relative number of "Kv4.3 like" AP's in EPG: significant decrease
  Relative number of "normal" AP's in EPG: corresponding increase
exp-2 background [5]
  Influence on pharynx pumping rate (pumps per 30 seconds): very little influence
N2 background
  Influence on pharynx pumping rate (pumps per 30 seconds): very little influence
[6]; pha-1, hKv4.3, 0,5 mM, 3 hrs
  Change observed (pharynx pumping rate): increase in
[6]; strain UG 1598, 0,5 mM in agar plates, 3 hours at 20° C., FIG. 4
  Influence on pharynx pumping rate (pumps per 30 seconds): increases
[6]; strain UG 1598, refers to Example VI
  Pharynx pumping (as restated in Example XIII): reduction
